Results from ChEMBL document CHEMBL3864164, “II. Discovery of a novel series of CXCR3 antagonists with a beta amino acid core” (Bioorg Med Chem Lett, 2016).
Converted amounts (≈) assume the structure as drawn.

What was measured:
[1] = Drug degradation in solid phase after few months; format: physicochemical; settings: read-out: Drug degradation
[2] = Solubility of the compound at pH 1.1 to 7.4; format: physicochemical; settings: buffer
[3] = Absolute oral bioavailability in Balb/c mouse at 10 mg/kg; format: ADME, organism-based; settings: in vivo

SMILES | degraded [1] | solubility [2] | bioavailability [3]
CCCN(Cc1ccc(OCCN2C(=O)CCC2=O)c(C)c1)[C@@H](CC(=O)O)c1ccc(Cl)cc1 | 5 to 7% | 3000 µM (≈ 1460 µg/mL) | –
CCN(Cc1ccc(OCCN2C(=O)CCC2=O)c(C)c1)C(CC(=O)O)c1ccc(Cl)cc1 (configuration not stated) | 5 to 7% | 3000 µM (≈ 1420 µg/mL) | –
Cc1cc(CN(CC2CC2)[C@@H](CC(=O)O)c2ccc(Cl)cc2)ccc1OCCN1C(=O)CCC1=O | 5 to 7% | 3000 µM (≈ 1500 µg/mL) | –
Cc1cc(CN(CC(C)C)C(CC(=O)O)c2ccc(Cl)cc2)ccc1OCCN1C(=O)CCC1=O (configuration not stated) | 5 to 7% | 3000 µM (≈ 1500 µg/mL) | –
Cc1cc(CN(CC2CCCCC2)C(CC(=O)O)c2ccc(Cl)cc2)ccc1OCCN1C(=O)CCC1=O (configuration not stated) | 5 to 7% | 3000 µM (≈ 1620 µg/mL) | –
COc1cc(CN(CC2CC2)[C@@H](CC(=O)O)c2ccc(Cl)c(F)c2)ccc1OCCN1C(=O)CCC1=O.Cl | 5 to 7% | 3000 µM | 5.4%
C[C@@H](c1ccc(Cl)cc1)N(Cc1ccc(OCCN2C(=O)CCC2=O)c(C(=O)O)c1)CC1CCCC1 | 5 to 7% | 3000 µM (≈ 1540 µg/mL) | –
Cc1cc(CN(C2CCC2)C(CC(=O)O)c2ccc(Cl)cc2)ccc1OCCN1C(=O)CCC1=O (configuration not stated) | 5 to 7% | 3000 µM (≈ 1500 µg/mL) | –
Cc1cc(CN(CC2CC2)C(CC(=O)O)c2ccc(Cl)cc2)ccc1OCCN1C(=O)CCC1=O (configuration not stated) | 5 to 7% | 3000 µM (≈ 1500 µg/mL) | –
CCCN(Cc1ccc(OCCN2C(=O)CCC2=O)c(OC)c1)C(C(=O)O)c1ccc(Cl)cc1 (configuration not stated) | 5 to 7% | 3000 µM (≈ 1470 µg/mL) | –
Cc1cc(CN(CCC(F)(F)F)C(CC(=O)O)c2ccc(Cl)cc2)ccc1OCCN1C(=O)CCC1=O (configuration not stated) | 5 to 7% | 3000 µM (≈ 1620 µg/mL) | –
Cc1cc(CN(CC2CCCC2)C(CC(=O)O)c2ccc(Cl)cc2)ccc1OCCN1C(=O)CCC1=O (configuration not stated) | 5 to 7% | 3000 µM (≈ 1580 µg/mL) | –
COc1cc(CN(CC(C)C)C(CC(=O)O)c2ccc(Cl)cc2Cl)ccc1OCCN1C(=O)CCC1=O (configuration not stated) | 5 to 7% | 3000 µM (≈ 1650 µg/mL) | –
Cl.O=C(O)C[C@@H](c1ccc(Cl)c(F)c1)N(Cc1ccc(OCCN2C(=O)CCC2=O)c(F)c1)CC1CC1 | 5 to 7% | 3000 µM | 70%
Cl.O=C(O)C[C@@H](c1ccc(Cl)c(F)c1)N(Cc1ccc(OCCN2C(=O)CCC2=O)c(Cl)c1)CC1CC1 | 5 to 7% | 3000 µM | 35%
CCCN(Cc1ccc(OCCN2C(=O)CCC2=O)c(C)c1)[C@H](CC(=O)O)c1ccc(Cl)cc1 | 5 to 7% | 3000 µM (≈ 1460 µg/mL) | –

SMILES | degraded [1] | solubility [2] | bioavailability [3]
CCCN(Cc1ccc(OCCN2C(=O)CCC2=O)c(C)c1)C(c1ccc(Cl)cc1)C1(C(=O)O)CC1 (configuration not stated) | 5 to 7% | 3000 µM (≈ 1540 µg/mL) | –
Cc1cc(CN(CC2CCCC2)[C@@H](CC(=O)O)c2ccc(Cl)cc2)ccc1OCCN1C(=O)CCC1=O | 5 to 7% | 3000 µM (≈ 1580 µg/mL) | 14%
COc1cc(CN(CC2CCCC2)[C@@H](CC(=O)O)c2ccc(Cl)c(F)c2)ccc1OCCN1C(=O)CCC1=O | 5 to 7% | 3000 µM (≈ 1680 µg/mL) | –
CCc1cc(CN(CC2CCCC2)[C@@H](CC(=O)O)c2ccc(Cl)cc2)ccc1OCCN1C(=O)CCC1=O | 5 to 7% | 3000 µM (≈ 1620 µg/mL) | –
CCCN(Cc1ccc(OCCN2C(=O)CCC2=O)c(C)c1)C(CC(=O)O)c1ccc(Cl)s1.Cl (configuration not stated) | 5 to 7% | 3000 µM | –
Cc1cc(CN(Cc2ccc(F)cc2)C(CC(=O)O)c2ccc(Cl)cc2)ccc1OCCN1C(=O)CCC1=O.Cl (configuration not stated) | 5 to 7% | 3000 µM | –
Cl.O=C(O)C[C@@H](c1ccc(Cl)c(Cl)c1)N(Cc1ccc(OCCN2C(=O)CCC2=O)c(F)c1)CC1CC1 | 5 to 7% | 3000 µM | 64%
Cc1cc(CN(CC(C)C)C(CC(=O)O)c2ccc(Cl)cc2Cl)ccc1OCCN1C(=O)CCC1=O (configuration not stated) | 5 to 7% | 3000 µM (≈ 1610 µg/mL) | –
Cc1cc(CN(CC(C)C)C(CC(=O)O)c2ccc(Cl)c(Cl)c2)ccc1OCCN1C(=O)CCC1=O (configuration not stated) | 5 to 7% | 3000 µM (≈ 1610 µg/mL) | –
CCCN(Cc1ccc(OCCN2C(=O)CCC2=O)c(C)c1)C1c2ccc(Cl)cc2CC1C(=O)O (configuration not stated) | 5 to 7% | 3000 µM (≈ 1500 µg/mL) | –
Cc1cc(CN(CC(C)C)C(CC(=O)O)c2ccc(Cl)c(F)c2)ccc1OCCN1C(=O)CCC1=O (configuration not stated) | 5 to 7% | 3000 µM (≈ 1560 µg/mL) | –
CCCN(Cc1ccc(OCCN2C(=O)CCC2=O)c(OC)c1)C(c1ccc(Cl)cc1)C(C)C(=O)O (configuration not stated) | 5 to 7% | 3000 µM (≈ 1550 µg/mL) | –
Cc1cc(CN(CC(C)C)[C@@H](CC(=O)O)c2ccc(Cl)cc2)ccc1OCCN1C(=O)CCC1=O | 5 to 7% | 3000 µM (≈ 1500 µg/mL) | –
CCCN(Cc1ccc(OCCN2C(=O)CCC2=O)c(C)c1)C(CC(=O)O)c1ccc(Cl)cc1 (configuration not stated) | 5 to 7% | 3000 µM (≈ 1460 µg/mL) | –
Cc1cc(CN(CC2CCCC2)[C@@H](CC(=O)O)c2ccc(Cl)c(F)c2)ccc1OCCN1C(=O)CCC1=O.Cl | 5 to 7% | 3000 µM | –
Cc1cc(CN(CC(C)C)[C@@H](CC(=O)O)c2ccc(Cl)c(F)c2)ccc1OCCN1C(=O)CCC1=O.Cl | 5 to 7% | 3000 µM | –

Second part, the compound after the results:

degraded [1] | solubility [2] | bioavailability [3] | SMILES
5 to 7% | 3000 µM (≈ 1500 µg/mL) | – | CCN(Cc1ccc(OCCn2c(=O)ccn(C)c2=O)c(C)c1)C(CC(=O)O)c1ccc(Cl)cc1 (configuration not stated)
5 to 7% | 3000 µM (≈ 1650 µg/mL) | – | COc1cc(CN(CC(C)C)C(CC(=O)O)c2ccc3c(c2)CCO3)ccc1OCCn1c(=O)ccn(C)c1=O (configuration not stated)
5 to 7% | 3000 µM (≈ 1460 µg/mL) | – | Cc1cc(CN(C)C(CC(=O)O)c2ccc(Cl)cc2)ccc1OCCn1c(=O)ccn(C)c1=O (configuration not stated)
5 to 7% | 3000 µM (≈ 1530 µg/mL) | – | Cc1cc(CN(CC(C)C)C(CC(=O)O)c2ccc3c(c2)CCO3)ccc1OCCN1C(=O)CCC1=O (configuration not stated)
5 to 7% | 3000 µM (≈ 1630 µg/mL) | – | COc1cc(CN(CC(C)C)[C@@H](CC(=O)O)c2ccc(Cl)cc2)ccc1OCCn1c(=O)ccn(C)c1=O
5 to 7% | 3000 µM (≈ 1650 µg/mL) | – | CCCCN(Cc1ccc(OCCn2c(=O)ccn(C)c2=O)c(OC)c1)C(CC(=O)O)c1ccc2c(c1)CCO2 (configuration not stated)
5 to 7% | 3000 µM (≈ 1580 µg/mL) | – | Cc1cc(CN(CC2CC2)C(CC(=O)O)c2ccc(Cl)cc2)ccc1OCCn1c(=O)ccn(C)c1=O (configuration not stated)
5 to 7% | 3000 µM (≈ 1610 µg/mL) | – | CCCN(Cc1ccc(OCCn2c(=O)ccn(C)c2=O)c(OC)c1)C(CC(=O)O)c1ccc2c(c1)CCO2 (configuration not stated)
5 to 7% | 3000 µM (≈ 1630 µg/mL) | – | COc1cc(CN(CC(C)C)C(CC(=O)O)c2ccc(Cl)cc2)ccc1OCCn1c(=O)ccn(C)c1=O (configuration not stated)
5 to 7% | 3000 µM (≈ 1630 µg/mL) | – | CCCCN(Cc1ccc(OCCn2c(=O)ccn(C)c2=O)c(OC)c1)C(CC(=O)O)c1ccc(Cl)cc1 (configuration not stated)
5 to 7% | 3000 µM (≈ 1570 µg/mL) | – | COc1cc(CN(CC(C)C)C(CC(=O)O)c2ccc3c(c2)CCO3)ccc1OCCN1C(=O)CCC1=O (configuration not stated)
5 to 7% | 3000 µM (≈ 1650 µg/mL) | – | COc1cc(CN(CC(C)C)C(CC(=O)O)c2ccc(Cl)c(Cl)c2)ccc1OCCN1C(=O)CCC1=O (configuration not stated)
5 to 7% | 3000 µM (≈ 1650 µg/mL) | – | COc1cc(CN(CC2CC2)C(CC(=O)O)c2ccc3c(c2)CCO3)ccc1OCCn1c(=O)ccn(C)c1=O (configuration not stated)
5 to 7% | 3000 µM (≈ 1550 µg/mL) | – | CCN(Cc1ccc(OCCn2c(=O)ccn(C)c2=O)c(OC)c1)C(CC(=O)O)c1ccc(Cl)cc1 (configuration not stated)
5 to 7% | 3000 µM (≈ 1580 µg/mL) | – | Cc1cc(CN(C2CCC2)C(CC(=O)O)c2ccc(Cl)cc2)ccc1OCCn1c(=O)ccn(C)c1=O (configuration not stated)
5 to 7% | 3000 µM (≈ 1550 µg/mL) | – | COc1cc(CN(CC(C)C)C(CC(=O)O)c2ccc(Cl)cc2)ccc1OCCN1C(=O)CCC1=O (configuration not stated)
5 to 7% | 3000 µM (≈ 1630 µg/mL) | – | COc1cc(CN(C2CCC2)C(CC(=O)O)c2ccc(Cl)cc2)ccc1OCCn1c(=O)ccn(C)c1=O (configuration not stated)
5 to 7% | 3000 µM (≈ 1630 µg/mL) | – | COc1cc(CN(CC2CC2)C(CC(=O)O)c2ccc(Cl)cc2)ccc1OCCn1c(=O)ccn(C)c1=O (configuration not stated)
5 to 7% | 3000 µM (≈ 1500 µg/mL) | – | CCCCN(Cc1ccc(OCCN2C(=O)CCC2=O)c(C)c1)C(CC(=O)O)c1ccc(Cl)cc1 (configuration not stated)
5 to 7% | 3000 µM (≈ 1550 µg/mL) | – | CCCN(Cc1ccc(OCCN2C(=O)CCC2=O)c(OC)c1)C(CC)c1ccc(Cl)c(C(=O)O)c1 (configuration not stated)
5 to 7% | 3000 µM (≈ 1590 µg/mL) | – | CCCN(Cc1ccc(OCCn2c(=O)ccn(C)c2=O)c(OC)c1)C(CC(=O)O)c1ccc(Cl)cc1 (configuration not stated)
5 to 7% | 3000 µM (≈ 1630 µg/mL) | – | COc1cc(CN(CC(C)C)[C@H](CC(=O)O)c2ccc(Cl)cc2)ccc1OCCn1c(=O)ccn(C)c1=O
5 to 7% | 3000 µM (≈ 1540 µg/mL) | – | CCCN(Cc1ccc(OCCn2c(=O)ccn(C)c2=O)c(C)c1)C(CC(=O)O)c1ccc(Cl)cc1 (configuration not stated)
5 to 7% | 3000 µM (≈ 1610 µg/mL) | – | COc1cc(CN(CC(C)C)C(CC(=O)O)c2ccc(Cl)c(F)c2)ccc1OCCN1C(=O)CCC1=O (configuration not stated)
